These results are taken from patent EP0560267B1, “Isosteric antiherpes peptide derivatives” (BOEHRINGER INGELHEIM (CANADA) LTD., priority 1992, dated 1993).

Like-named read-outs stand apart in the source and are kept apart here.

For assay [1], the target named is T1, HSV-1 ribonucleotide reductase (Human herpesvirus 1, UniProt P08543).
T1 construct: HSV-1 ribonucleotide reductase (partially purified) was obtained from quiescent BHK-21/C13 cells infected with strain F HSV-1 virus; made in house; host or cells: quiescent BHK-21/C13 cells infected with HSV-1 strain F (virus-encoded enzyme, partially purified)
The experiment in a line: Inhibition of Herpes Simplex Virus (HSV-1) ribonucleotide reductase. The settings on record: assay of example 10. The assay is classed as biochemical. In short, it runs like this: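 Partially purified enzyme from quiescent BHK-21/C13 cells infected with HSV-1 strain F at 10 PFU/cell, used at constant units per assay. IC50 taken as concentration giving 50% of maximal inhibition versus no-compound control; mean of four assays.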

The next assay relates to HSV-2. The experiment in a line: Inhibition of Herpes Simplex Virus (HSV-2) replication in cell culture. The assay is classed as cell-based. Put shortly: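 Serum-starved BHK-21/C13 cells infected with HSV-2 strain HG-52 (MOI 0.02 PFU/cell), then exposed to compound in BBMT medium for 29 h at 37°. Progeny virus titrated on fresh BHK-21/C13 cells by neutral red viability read at 540; EC50 as concentration halving virus replication.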

Setting [2] is: Table IV, cell culture assay of example 11, read-out: EC50.

T1 sequence (P08543 whole entry): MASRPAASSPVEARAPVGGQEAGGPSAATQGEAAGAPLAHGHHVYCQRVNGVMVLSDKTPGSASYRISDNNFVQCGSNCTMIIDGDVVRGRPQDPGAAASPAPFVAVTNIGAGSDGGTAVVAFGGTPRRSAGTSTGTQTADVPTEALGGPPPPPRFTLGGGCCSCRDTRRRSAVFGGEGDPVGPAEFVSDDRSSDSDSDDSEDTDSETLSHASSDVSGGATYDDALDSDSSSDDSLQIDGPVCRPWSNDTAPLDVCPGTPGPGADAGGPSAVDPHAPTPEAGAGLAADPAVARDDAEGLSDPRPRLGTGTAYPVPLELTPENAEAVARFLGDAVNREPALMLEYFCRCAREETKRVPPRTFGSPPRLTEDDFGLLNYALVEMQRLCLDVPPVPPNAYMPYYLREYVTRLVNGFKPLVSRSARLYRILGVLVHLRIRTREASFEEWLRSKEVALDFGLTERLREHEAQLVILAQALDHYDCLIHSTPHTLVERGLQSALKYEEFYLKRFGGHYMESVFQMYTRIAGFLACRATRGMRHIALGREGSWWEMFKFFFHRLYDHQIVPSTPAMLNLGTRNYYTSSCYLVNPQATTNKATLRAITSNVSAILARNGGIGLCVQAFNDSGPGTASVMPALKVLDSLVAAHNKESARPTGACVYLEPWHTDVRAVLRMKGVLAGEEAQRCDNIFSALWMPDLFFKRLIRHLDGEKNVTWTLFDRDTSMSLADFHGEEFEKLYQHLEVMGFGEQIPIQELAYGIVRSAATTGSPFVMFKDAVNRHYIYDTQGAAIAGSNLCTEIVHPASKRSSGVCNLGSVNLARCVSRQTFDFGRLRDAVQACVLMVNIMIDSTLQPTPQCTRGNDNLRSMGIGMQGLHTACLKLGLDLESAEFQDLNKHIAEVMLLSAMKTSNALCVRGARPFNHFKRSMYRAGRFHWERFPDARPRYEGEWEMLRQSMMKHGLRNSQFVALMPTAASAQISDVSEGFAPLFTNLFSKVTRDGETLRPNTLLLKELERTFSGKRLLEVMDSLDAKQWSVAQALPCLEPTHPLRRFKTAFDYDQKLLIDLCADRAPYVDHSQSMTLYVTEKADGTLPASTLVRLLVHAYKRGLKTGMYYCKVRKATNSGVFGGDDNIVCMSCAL

`CCCC(CCC)NC(=O)NC(C(=O)CC(CC(=O)C(C)(C)C)C(=O)NC(C(=O)NC(C)C(C)(C)CC)C1(C(=O)O)CCCC1)C(C)(C)C` [Pr2CHNHC(O)-Tbg-CH2-(R)-CH(CH2C(O)CMe3)C(O)-Asp(cyPn)-NH-(R)-CH(Me)C(Me)2Et]: in assay [1] (Table IV), the IC50 was 0.5 µM. A half-maximal effect with HSV-2 (Human alphaherpesvirus 2, Table IV, cell culture assay of example 11) (EC50) was put at 21 µM.
As to `CCCC(CCC)NC(=O)NC(C(=O)CC(CC(=O)C(C)(C)C)C(=O)NC(C(=O)NC1CCCCC1C)C1(C(=O)O)CCCC1)C(C)(C)C` [Pr2CHNHC(O)-Tbg-CH2-(R)-CH(CH2C(O)CMe3)C(O)-Asp(cyPn)-cis-NH-(2-methyl-cyclohexyl)], in assay [1] (Table IV), the IC50 is 0.67 µM. For the same molecule, the EC50 with HSV-2 (Human alphaherpesvirus 2, Table IV, cell culture assay of example 11, read-out: EC50) turned out to be 75 µM.
`CCCC(CCC)NC(=O)NC(C(=O)CC(CC(=O)C1(C)CCCC1)C(=O)NC(C(=O)NCC(C)(C)C)C1(C(=O)O)CCCC1)C(C)(C)C` [Pr2CHNHC(O)-Tbg-CH2-(R)-CH{CH2-C(O)-(1-methylcyclopentyL)}C(O)-Asp(cyPn)-NHCH2CMe3] came in with a concentration for half-maximal inhibition (IC50) in assay [1] (Table V) of 0.24 µM. The molecule also returned an EC50 in the assay on HSV-2 (Human alphaherpesvirus 2) of 35 µM.
Molecule `CCCC(CCC)NC(=O)NC(C(=O)CC(CC(=O)C1CCC1)C(=O)NC(C(=O)NCC(C)(C)C)C1(C(=O)O)CCCC1)C(C)(C)C` [Pr2CHNHC(O)-Tbg-CH2-(R)-CH{CH2-C(O)-(cyclobutyl)}C(O)-Asp(cyPn)-NHCH2CMe3] showed an IC50 in assay [1] (Table V) of 0.31 µM. This molecule also returned an EC50 with HSV-2 (Human alphaherpesvirus 2) of 46 µM.
The molecule `CCCC(CCC)NC(=O)NC(C(=O)CC(CC(=O)C1CCCCC1)C(=O)NC(C(=O)NCC(C)(C)C)C1(C(=O)O)CCCC1)C(C)(C)C` [Pr2CHNHC(O)-Tbg-CH2-(R)-CH{CH2-C(O)-(cyclohexyl)}C(O)-Asp(cyPn)-NHCH2CMe3] gave an IC50 in assay [1] (Table V) of 0.37 µM. The EC50 in the assay on HSV-2 (Human alphaherpesvirus 2) worked out at 61 µM.
In turn, `CCCC(CCC)NC(=O)NC(C(=O)CC(CC(=O)C(C)(C)C)C(=O)NC(C(=O)NC(C)C(C)(C)C)C1(C(=O)O)CCCC1)C(C)C` [Pr2CHNHC(O)-Val-CH2-(R)-CH(CH2-C(O)CMe3)C(O)-Asp(cyPn)-NH-(R)-CH(Me)CMe3] registered an IC50 in assay [1] (Table V) of 0.22 µM. For the same molecule, the EC50 in the assay with HSV-2 (Human alphaherpesvirus 2, Table V, cell culture assay of example 11) is 37 µM.
The molecule “EtPr2CHNHC(O)-Tbg-CH2-(R)-CH(CH2C(O)CMe3)C(O)-Asp(cyPn)-NHCH2CHEt2 [EtPr2CHNHC(O) / NHCH2CHEt2]” yielded an IC50 in assay [1] (Table IV) of 0.41 µM. Further, the EC50 in the assay with HSV-2 (setting [2]) came to 42 µM.
Take “Me(CH2=CH-CH2)2CNHC(O)-Tbg-CH2-(R)-CH(CH2C(O)CMe3)C(O)-Asp(cyPn)-NHCH2CMe3 [Me(CH2=CHCH2)2-CNHC(O) / NHCH2CMe3]”: the IC50 in assay [1] (Table IV) came out at 0.27 µM. For the same molecule, the EC50 in the assay on HSV-2 (setting [2]) was found to be 30 µM.

As a reminder, the IC50 is the point on the concentration scale where inhibition reaches its midpoint. Broadly, the EC50 is the concentration giving half of the maximal effect.
